Experimental findings from patent US10112941B2, “Tricyclic compounds as anticancer agents” (BRISTOL-MYERS SQUIBB COMPANY, priority 2013, dated 2018) are described below.

Where only a bound is given, the exact number is not on record here.

This assay deals with BRD4 (Homo sapiens, UniProt O60885). Nature of the assay: Time Resolved Fluorescence Resonance Energy Transfer (TR-FRET) binding assay, BRD4. To be noted: one of the FRET assays described; read-out: FRET BRD4 IC50.
For `Cc1noc(C)c1-c1cnc2c3ccc(S(C)(=O)=O)cc3n([C@H](c3ccc(F)cc3)C3CCOCC3)c2c1` [Example 172, 4-{5-[(S)-(4-Fluorophenyl)(oxan-4-yl)methyl]-7-methanesulfonyl-5H-pyrido[3,2-b]indol-3-yl}-3,5-dimethyl-1,2-oxazole], the IC50 is less than 5 nM.

As for `Cc1noc(C)c1-c1cnc2c3ccc(S(C)(=O)=O)cc3n([C@H](c3ccccc3F)C3CCOCC3)c2c1` [Example 173], the IC50 is less than 5 nM.

As for `Cc1noc(C)c1-c1cnc2c3ccc(S(C)(=O)=O)cc3n([C@@H](c3ccccc3F)C3CCOCC3)c2c1` [Example 174], the IC50 was less than 5 nM.

For `Cc1nnn(C)c1-c1cnc2c3cc(C(C)(C)O)ccc3n([C@H](c3ccccc3)C3CCOCC3)c2c1` [Example 175, 2-[3-(Dimethyl-1H-1,2,3-triazol-5-yl)-5-[(S)-oxan-4-yl(phenyl)methyl]-5H-pyrido[3,2-b]indol-8-yl]propan-2-ol], the IC50 is less than 5 nM.

For the compound `Cc1nnn(C)c1-c1cnc2c3cc(C(C)(C)O)ccc3n([C@H](c3ccc(F)cc3)C3CCOCC3)c2c1` [Example 176, 2-[3-(Dimethyl-1H-1,2,3-triazol-5-yl)-5-[(S)-(4-fluorophenyl)(oxan-4-yl)methyl]-5H-pyrido[3,2-b]indol-8-yl]propan-2-ol], the IC50 was less than 5 nM.

Take `Cc1nnn(C)c1-c1cnc2c3ccc(S(C)(=O)=O)cc3n([C@H](c3ccccc3)C3CCOCC3)c2c1` [Example 177, 5-{7-Methanesulfonyl-5-[(S)-oxan-4-yl(phenyl)methyl]-5H-pyrido[3,2-b]indol-3-yl}-1,4-dimethyl-1H-1,2,3-triazole]: the IC50 is less than 5 nM.

With `Cc1nnn(C)c1-c1cnc2c3ccc(S(C)(=O)=O)cc3n([C@H](c3ccc(F)cc3)C3CCOCC3)c2c1` [Example 178, 5-{5-[(S)-(4-Fluorophenyl)(oxan-4-yl)methyl]-7-methanesulfonyl-5H-pyrido[3,2-b]indol-3-yl}-1,4-dimethyl-1H-1,2,3-triazole], the IC50 is less than 5 nM.

Regarding `Cn1nnc(CO)c1-c1cnc2c3ccc(S(C)(=O)=O)cc3n([C@H](c3ccccc3)C3CCOCC3)c2c1` [Example 179, (5-{7-Methanesulfonyl-5-[(S)-oxan-4-yl(phenyl)methyl]-5H-pyrido[3,2-b]indol-3-yl}-1-methyl-1H-1,2,3-triazol-4-yl)methanol], the IC50 was less than 5 nM.

For `Cn1nnc(CF)c1-c1cnc2c3ccc(S(C)(=O)=O)cc3n([C@H](c3ccccc3)C3CCOCC3)c2c1` [Example 180, 4-(Fluoromethyl)-5-{7-methanesulfonyl-5-[(S)-oxan-4-yl(phenyl)methyl]-5H-pyrido[3,2-b]indol-3-yl}-1-methyl-1H-1,2,3-triazole], the half-maximal inhibitory concentration (IC50) was less than 5 nM.

For `Cc1nnn(C)c1-c1cnc2c3c(F)ccc(S(C)(=O)=O)c3n([C@H](c3ccccc3)C3CCOCC3)c2c1` [Example 181, 5-{9-Fluoro-6-methanesulfonyl-5-[(S)-oxan-4-yl(phenyl)methyl]-5H-pyrido[3,2-b]indol-3-yl}-1,4-dimethyl-1H-1,2,3-triazole], the IC50 was less than 5 nM.

For `COc1ccc(S(C)(=O)=O)c2c1c1ncc(-c3c(C)nnn3C)cc1n2[C@H](c1ccccc1)C1CCOCC1` [Example 182, 5-{6-Methanesulfonyl-9-methoxy-5-[(S)-oxan-4-yl(phenyl)methyl]-5H-pyrido[3,2-b]indol-3-yl}-1,4-dimethyl-1H-1,2,3-triazole], the IC50 is less than 5 nM.

For `[2H]C([2H])([2H])c1nnn(C)c1-c1cnc2c3c(OC)ccc(S(C)(=O)=O)c3n([C@H](c3ccccc3)C3CCOCC3)c2c1` [Example 183, 5-{6-Methanesulfonyl-9-methoxy-5-[(S)-oxan-4-yl(phenyl)methyl]-5H-pyrido[3,2-b]indol-3-yl}-4-(^2H3)methyl-1-methyl-1H-1,2,3-triazole], the IC50 is less than 5 nM.

As to `[2H]C([2H])([2H])Oc1ccc(S(=O)(=O)C([2H])([2H])[2H])c2c1c1ncc(-c3c(C)nnn3C)cc1n2[C@H](c1ccccc1)C1CCOCC1` [Example 184, 5-[6-(^2H3)Methanesulfonyl-9-(^2H3)methoxy-5-[(S)-oxan-4-yl(phenyl)methyl]-5H-pyrido[3,2-b]indol-3-yl]-1,4-dimethyl-1H-1,2,3-triazole], the concentration for half-maximal inhibition (IC50) is less than 5 nM.

On to `COc1ccc(S(C)(=O)=O)c2c1c1ncc(-c3c(C)noc3C)cc1n2[C@H](c1ccccc1)C1CCOCC1` [Example 185, 4-{6-Methanesulfonyl-9-methoxy-5-[(S)-oxan-4-yl(phenyl)methyl]-5H-pyrido[3,2-b]indol-3-yl}-3,5-dimethyl-1,2-oxazole], for which the IC50 is less than 5 nM.

Regarding `COc1ccc(S(C)(=O)=O)c2c1c1ncc(-c3c(C)noc3C)cc1n2[C@H](c1ccccc1F)C1CCOCC1` [Example 186, 4-{5-[(S)-(2-Fluorophenyl)(oxan-4-yl)methyl]-6-methanesulfonyl-9-methoxy-5H-pyrido[3,2-b]indol-3-yl}-3,5-dimethyl-1,2-oxazole], the IC50 was less than 5 nM.

Regarding `COc1ccc(S(C)(=O)=O)c2c1c1ncc(-c3c(C)noc3C)cc1n2[C@H](c1ccc(F)cc1)C1CCOCC1` [Example 187, 4-{5-[(S)-(4-Fluorophenyl)(oxan-4-yl)methyl]-6-methanesulfonyl-9-methoxy-5H-pyrido[3,2-b]indol-3-yl}-3,5-dimethyl-1,2-oxazole], the IC50 is less than 5 nM.

`COc1ccc(S(C)(=O)=O)c2c1c1ncc(-c3c(C)nnn3C)cc1n2[C@H](c1ccccc1F)C1CCOCC1` [Example 188, 5-{5-[(S)-(2-Fluorophenyl)(oxan-4-yl)methyl]-6-methanesulfonyl-9-methoxy-5H-pyrido[3,2-b]indol-3-yl}-1,4-dimethyl-1H-1,2,3-triazole]: the IC50 is less than 5 nM.

As to `[2H]C([2H])([2H])c1nnn(C)c1-c1cnc2c3c(OC)ccc(S(C)(=O)=O)c3n([C@H](c3ccccc3F)C3CCOCC3)c2c1` [Example 189, 5-{5-[(S)-(2-Fluorophenyl)(oxan-4-yl)methyl]-6-methanesulfonyl-9-methoxy-5H-pyrido[3,2-b]indol-3-yl}-4-(^2H3)methyl-1-methyl-1H-1,2,3-triazole], the IC50 was less than 5 nM.

Turning to `COc1ccc(S(C)(=O)=O)c2c1c1ncc(-c3c(C)nnn3C)cc1n2[C@H](c1ccc(F)cc1)C1CCOCC1` [Example 190, 5-{5-[(S)-(4-Fluorophenyl)(oxan-4-yl)methyl]-6-methanesulfonyl-9-methoxy-5H-pyrido[3,2-b]indol-3-yl}-1,4-dimethyl-1H-1,2,3-triazole], the IC50 was less than 5 nM.

Take `[2H]C([2H])([2H])c1nnn(C)c1-c1cnc2c3c(OC)ccc(S(C)(=O)=O)c3n([C@H](c3ccc(F)cc3)C3CCOCC3)c2c1` [Example 191, 5-{5-[(S)-(4-Fluorophenyl)(oxan-4-yl)methyl]-6-methanesulfonyl-9-methoxy-5H-pyrido[3,2-b]indol-3-yl}-4-(^2H3)methyl-1-methyl-1H-1,2,3-triazole]: the IC50 is less than 5 nM.

`[2H]C([2H])([2H])c1onc(C)c1-c1cnc2c3ccc(C(C)(C)O)cc3n([C@H](c3ccccc3)C3CCOCC3)c2c1` [Example 192, 2-{3-[5-(^2H3)Methyl-3-methyl-1,2-oxazol-4-yl]-5-[(S)-oxan-4-yl(phenyl)methyl]-5H-pyrido[3,2-b]indol-7-yl}propan-2-ol]: the IC50 is less than 5 nM.
